These results are taken from publication PMC3004530 (Journal of the American Chemical Society, 2010).

In assay [1] the target is HDAC1 (Homo sapiens, UniProt Q13547). The assay can be described thus: HDAC1 biochemical inhibition assay. Particulars: read-out: IC50 HDAC1.
The target in assay [2] is HDAC3 (Homo sapiens, UniProt O15379). The assay can be described thus: HDAC3 biochemical inhibition assay. Particulars: read-out: IC50 HDAC3.
Assay [3] relates to HDACs 4-8. The assay can be described thus: HDAC biochemical inhibition, HDACs 4-8. Particulars: data not shown.
For assay [4], the target named is HDAC2 (Homo sapiens, UniProt Q92769). In words: HDAC2 high-throughput coupled biochemical assay.
In assay [5] the test system is HDACs 1, 2 and 3. The assay can be described thus: Mode of inhibition / deacetylation progression. The format is biochemical.
In assay [6] the target is HDAC8 (Homo sapiens, UniProt Q9BY41).
Assay [7] deals with HDAC6 (Homo sapiens, UniProt Q9UBN7).
Assay [8] relates to HDAC. Particulars: cited from earlier work.

Bounds are passed on as bounds.

Chain of HDAC2 (Q92769 whole entry, species assumed): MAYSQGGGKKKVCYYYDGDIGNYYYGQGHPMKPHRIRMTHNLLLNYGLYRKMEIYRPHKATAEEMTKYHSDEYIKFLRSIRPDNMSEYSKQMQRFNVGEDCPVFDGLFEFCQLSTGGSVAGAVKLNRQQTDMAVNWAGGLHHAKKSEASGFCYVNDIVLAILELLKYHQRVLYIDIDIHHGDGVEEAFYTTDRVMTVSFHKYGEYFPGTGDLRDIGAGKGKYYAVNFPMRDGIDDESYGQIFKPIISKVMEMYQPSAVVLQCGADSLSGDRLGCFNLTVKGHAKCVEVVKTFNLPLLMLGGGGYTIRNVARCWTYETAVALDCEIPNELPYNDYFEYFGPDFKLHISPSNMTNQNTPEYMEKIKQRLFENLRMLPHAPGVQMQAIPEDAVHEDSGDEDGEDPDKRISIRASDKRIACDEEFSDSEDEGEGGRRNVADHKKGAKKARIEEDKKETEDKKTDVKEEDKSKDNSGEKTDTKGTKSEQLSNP
Chain of HDAC8 (Q9BY41 whole entry, species assumed): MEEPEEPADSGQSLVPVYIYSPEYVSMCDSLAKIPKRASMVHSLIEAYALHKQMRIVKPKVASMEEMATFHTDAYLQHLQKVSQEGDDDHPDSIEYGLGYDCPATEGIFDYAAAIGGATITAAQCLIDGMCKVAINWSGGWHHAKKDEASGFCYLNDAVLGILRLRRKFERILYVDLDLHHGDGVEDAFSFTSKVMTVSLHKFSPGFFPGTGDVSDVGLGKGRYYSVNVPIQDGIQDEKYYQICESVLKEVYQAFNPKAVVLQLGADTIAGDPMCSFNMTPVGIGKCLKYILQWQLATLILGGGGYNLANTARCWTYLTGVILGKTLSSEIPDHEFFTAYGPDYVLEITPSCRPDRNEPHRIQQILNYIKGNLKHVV
Chain of HDAC6 (Q9UBN7 whole entry, species assumed): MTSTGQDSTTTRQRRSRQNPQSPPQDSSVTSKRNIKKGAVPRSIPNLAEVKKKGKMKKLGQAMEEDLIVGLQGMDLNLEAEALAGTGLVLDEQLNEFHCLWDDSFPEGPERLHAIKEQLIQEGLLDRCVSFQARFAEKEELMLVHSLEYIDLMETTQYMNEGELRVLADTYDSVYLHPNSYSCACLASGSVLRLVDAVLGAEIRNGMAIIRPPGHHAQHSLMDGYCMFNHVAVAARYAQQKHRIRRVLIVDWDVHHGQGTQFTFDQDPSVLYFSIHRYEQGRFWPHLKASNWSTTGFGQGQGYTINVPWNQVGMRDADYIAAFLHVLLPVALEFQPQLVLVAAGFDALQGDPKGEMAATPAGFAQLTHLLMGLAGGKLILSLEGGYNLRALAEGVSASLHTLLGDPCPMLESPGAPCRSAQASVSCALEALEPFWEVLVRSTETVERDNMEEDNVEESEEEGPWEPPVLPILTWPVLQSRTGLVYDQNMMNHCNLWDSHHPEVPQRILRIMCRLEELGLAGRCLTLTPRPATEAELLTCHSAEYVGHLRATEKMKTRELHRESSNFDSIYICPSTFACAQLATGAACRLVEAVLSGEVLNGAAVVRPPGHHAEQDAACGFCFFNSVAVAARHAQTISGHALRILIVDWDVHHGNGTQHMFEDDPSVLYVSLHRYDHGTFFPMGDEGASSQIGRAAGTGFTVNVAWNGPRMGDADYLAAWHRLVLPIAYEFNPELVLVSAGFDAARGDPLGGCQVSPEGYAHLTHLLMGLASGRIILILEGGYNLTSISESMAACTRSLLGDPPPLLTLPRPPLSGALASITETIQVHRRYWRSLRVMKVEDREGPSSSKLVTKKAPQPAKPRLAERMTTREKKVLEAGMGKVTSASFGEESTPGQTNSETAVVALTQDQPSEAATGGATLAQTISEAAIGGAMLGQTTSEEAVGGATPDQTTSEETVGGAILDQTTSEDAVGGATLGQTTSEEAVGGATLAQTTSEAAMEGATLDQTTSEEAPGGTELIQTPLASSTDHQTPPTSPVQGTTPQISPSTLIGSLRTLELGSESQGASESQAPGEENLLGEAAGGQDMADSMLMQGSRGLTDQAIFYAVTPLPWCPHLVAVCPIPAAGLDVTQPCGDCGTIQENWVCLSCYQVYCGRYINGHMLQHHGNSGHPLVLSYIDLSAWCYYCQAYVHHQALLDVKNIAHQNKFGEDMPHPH
Chain of HDAC1 (Q13547 whole entry, species assumed): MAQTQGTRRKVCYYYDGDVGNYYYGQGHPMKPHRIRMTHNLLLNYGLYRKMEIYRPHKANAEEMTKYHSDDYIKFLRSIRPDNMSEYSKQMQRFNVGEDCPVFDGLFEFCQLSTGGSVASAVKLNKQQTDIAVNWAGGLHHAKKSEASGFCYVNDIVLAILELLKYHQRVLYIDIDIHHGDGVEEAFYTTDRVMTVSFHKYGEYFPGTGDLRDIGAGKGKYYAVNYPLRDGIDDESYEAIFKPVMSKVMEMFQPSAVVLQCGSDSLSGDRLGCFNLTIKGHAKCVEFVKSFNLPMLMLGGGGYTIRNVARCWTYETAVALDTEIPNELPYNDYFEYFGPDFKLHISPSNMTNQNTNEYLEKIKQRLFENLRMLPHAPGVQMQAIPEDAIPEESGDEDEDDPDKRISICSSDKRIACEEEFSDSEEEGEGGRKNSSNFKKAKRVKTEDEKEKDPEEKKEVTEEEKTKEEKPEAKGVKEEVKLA
Chain of HDAC3 (O15379 whole entry, species assumed): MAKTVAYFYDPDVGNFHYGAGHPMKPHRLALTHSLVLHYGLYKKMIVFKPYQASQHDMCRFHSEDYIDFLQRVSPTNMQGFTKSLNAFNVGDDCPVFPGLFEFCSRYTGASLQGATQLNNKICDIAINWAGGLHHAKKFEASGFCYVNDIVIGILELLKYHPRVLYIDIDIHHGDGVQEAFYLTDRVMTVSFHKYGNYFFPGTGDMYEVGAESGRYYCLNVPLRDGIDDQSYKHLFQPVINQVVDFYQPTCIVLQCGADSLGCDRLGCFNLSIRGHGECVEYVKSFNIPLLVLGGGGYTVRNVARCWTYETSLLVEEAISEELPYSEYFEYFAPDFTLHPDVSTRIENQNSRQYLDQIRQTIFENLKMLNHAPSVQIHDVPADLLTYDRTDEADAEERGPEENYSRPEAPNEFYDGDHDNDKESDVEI
Chain of HDAC3 (Q9Y618 395-489 partner limits assumed, species assumed): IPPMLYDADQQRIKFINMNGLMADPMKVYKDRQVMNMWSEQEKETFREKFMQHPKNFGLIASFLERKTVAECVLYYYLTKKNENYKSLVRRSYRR

With `C[C@@H]1CCCCO[C@@H](CN(C)Cc2ccc3c(c2)OCO3)[C@H](C)CN([C@@H](C)CO)C(=O)c2cc(N(C)C)ccc2O1` [entry 1], the IC50 was 2700 ± 300 nM in assay [1], 2700 ± 200 nM in assay [2] and 6600 ± 400 nM in assay [4] (read-out: IC50 HDAC2). The “activity against HDACs 4-8” value in assay [3] was “inactive”. For the same compound, in assay [4] (compared to lead stereoisomer (2R,5S,6R,12R)-32), the “fold improvement in HDAC2 potency” value is given as greater than 10 fold.

As for `O=C(CCCCCCC(=O)Nc1ccccc1)NO` [SAHA], the “binding kinetics nature (deacetylation progression linear)” value in assay [5] was “fast-on/fast-off”. Further, in assay [6], the “inhibition of HDAC8” value is recorded as “inhibits”. Moreover, the “inhibition of HDAC6” value in assay [7] is listed as “inhibits”.

Turning to `CCC(=O)CCCCC[C@@H]1NC(=O)[C@H]2CCCCN2C(=O)[C@H]([C@@H](C)CC)NC(=O)[C@H](Cc2cn(OC)c3ccccc23)NC1=O` [Apicidin], in assay [8], the HDAC class selectivity result is given as “selectivity for class I HDACs” and the “potency in HDAC biochemical assay” value is given as “single digit nanomolar potency”.

Broadly, the IC50 is the midpoint of a concentration-inhibition curve.
